Data as given in the supplement of paper PMC11061612.

Assays:
Assay in all cases: Bliss excess, mean over the matrix (fraction); higher = more synergy
[1] = system: HSC-4 (Oral Cavity Carcinoma)
In short: (§1)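 Cell lines in DMEM/F12 or RPMI with 10% FBS were plated in 1536-well plates, held 24 hours at 37°C, 5% CO2, then given two-drug dose matrices for 72 hours (DMSO typically 0.2%). Viability was read by CellTiter-Glo 2.0 luminescence and scaled as inhibition from 0 (vehicle wells) to 1 (blank wells). Combination Emax is the second-highest inhibition in the matrix; Bliss excess is observed combination effect minus expected EA + EB − EA·EB, EA and EB being single-agent effects.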

[2] = system: MLMA (Other Blood Carcinomas)
In short: as §1

[3] = system: PWR-1E (Non-Cancerous)
In short: as §1

[4] = system: EoL-1-cell (Acute Myeloid Leukemia)
In short: as §1

[5] = system: UACC-62 (Melanoma)
In short: as §1

[6] = system: SCC-15 (Oral Cavity Carcinoma)
In short: as §1

[7] = system: C-4-I (Cervical Carcinoma)
In short: as §1

[8] = system: KYSE-450 (Esophageal Squamous Cell Carcinoma)
In short: as §1

[9] = system: KARPAS-299 (T-Cell Non-Hodgkin's Lymphoma)
In short: as §1

[10] = system: OE19 (Esophageal Adenocarcinoma)
In short: as §1

[11] = system: TE-1 (Esophageal Squamous Cell Carcinoma)
In short: as §1

[12] = system: BT-549 (Breast Carcinoma)
In short: as §1

[13] = system: OVCAR-4 (Ovarian Carcinoma)
In short: as §1

[14] = system: PANC-04-03 (Pancreatic Carcinoma)
In short: as §1

[15] = system: ACHN (Kidney Carcinoma)
In short: as §1

[16] = system: TK10 (Kidney Carcinoma)
In short: as §1

[17] = system: KMOE-2 (Acute Myeloid Leukemia)
In short: as §1

[18] = system: MIA-PaCa-2 (Pancreatic Carcinoma)
In short: as §1

[19] = system: LU-65 (Non-Small Cell Lung Carcinoma)
In short: as §1

[20] = system: VA-ES-BJ (Other Solid Carcinomas)
In short: as §1

Row | SMILES | Bliss excess [1] | Bliss excess [2] | Bliss excess [3] | Bliss excess [4] | Bliss excess [5] | Bliss excess [6] | Bliss excess [7] | Bliss excess [8] | Bliss excess [9] | Bliss excess [10] | Bliss excess [11] | Bliss excess [12] | Bliss excess [13] | Bliss excess [14] | Bliss excess [15] | Bliss excess [16] | Bliss excess [17] | Bliss excess [18] | Bliss excess [19] | Bliss excess [20]
1 | COc1cccc(OCCCN)c1-c1cc(Nc2cnc(C#N)cn2)n[nH]1 [Prexasertib] + CN(C)CCCOc1ccc(-c2ccc3ncc4c(c3c2)n(C2CCOCC2)c(=O)n4C)cn1 [AZD0156] (first compound max 1 µM, 7x7, partner max 1 µM) | -0.0079 | -0.0349 | -0.0276 | -0.0145 | 0.0155 | -0.0333 | -0.0273 | -0.0713 | 0.0074 | 0.0198 | -0.0356 | -0.0094 | 0.0086 | -0.0328 | -0.0318 | -0.0239 | -0.0363 | -0.0391 | -0.023 | -0.0395
2 | CC1(C)CCC(CN2CCN(c3ccc(C(=O)NS(=O)(=O)c4ccc(NCC5CCOCC5)c([N+](=O)[O-])c4)c(Oc4cnc5[nH]ccc5c4)c3)CC2)=C(c2ccc(Cl)cc2)C1 [Venetoclax] + C1CN(CCC1(C(=O)N[C@@H](CCO)C2=CC=C(C=C2)Cl)N)C3=NC=NC4=C3C=CN4 [Capivasertib] (first compound max 1 µM, 7x7, partner max 3 µM) | -0.0281 | -0.0425 | -0.0161 | 0.0239 | -0.0238 | -0.0639 | -0.0099 | -0.0296 | -0.0004 | -0.016 | -0.0236 | -0.0385 | -0.0393 | -0.0732 | -0.0358 | -0.0574 | 0.0121 | -0.0384 | -0.0377 | -0.0357
3 | CN(C)CCCOc1ccc(-c2ccc3ncc4c(c3c2)n(C2CCOCC2)c(=O)n4C)cn1 [AZD0156] + CCN(CCO)CCCOc1ccc2c(Nc3cc(CC(=O)Nc4cccc(F)c4)[nH]n3)ncnc2c1 [AZD2811] (first compound max 1 µM, 7x7, partner max 1 µM) | -0.0348 | -0.0431 | 0.0831 | -0.0696 | -0.0467 | -0.0458 | -0.0074 | -0.0353 | 0.0031 | 0.0224 | -0.0016 | -0.0028 | -0.0148 | -0.0644 | -0.0232 | -0.0342 | 0.0096 | 0.0369 | 0.0441 | 0.0248
4 | C[C@@H]1COCCN1c1cc(C2([S@](C)(=N)=O)CC2)nc(-c2ccnc3[nH]ccc23)n1 [AZD6738] + O=C(c1cc(Cc2n[nH]c(=O)c3ccccc23)ccc1F)N1CCN(C(=O)C2CC2)CC1 [Olaparib] (first compound max 10 µM, 7x7, partner max 10 µM) | -0.0172 | -0.15 | -0.0632 | 0.0073 | 0.0235 | 0.0011 | -0.0144 | 0.0066 | -0.0073 | -0.133 | -0.0461 | 0.0032 | 0.0035 | 0.0066 | -0.0791 | -0.0735 | 0.0413 | -0.016 | 0.0026 | -0.0692
5 | Cn1cnc2c(F)c(Nc3ccc(Br)cc3Cl)c(C(=O)NOCCO)cc21 [Selumetinib] + CCN(CCO)CCCOc1ccc2c(Nc3cc(CC(=O)Nc4cccc(F)c4)[nH]n3)ncnc2c1 [AZD2811] (first compound max 10 µM, 7x7, partner max 1 µM) | -0.0442 | -0.026 | -0.0175 | 0.0206 | -0.0289 | -0.0377 | 0.0582 | -0.0117 | 0.0227 | -0.0015 | 0.0378 | -0.0216 | -0.0468 | -0.0339 | 0.0086 | -0.0589 | -0.0124 | 0.0585 | -0.0082 | -0.0263
6 | C=CCn1c(=O)c2cnc(Nc3ccc(N4CCN(C)CC4)cc3)nc2n1-c1cccc(C(C)(C)O)n1 [AZD1775] + O=C(c1cc(Cc2n[nH]c(=O)c3ccccc23)ccc1F)N1CCN(C(=O)C2CC2)CC1 [Olaparib] (first compound max 1 µM, partner max 10 µM) | -0.0337 | -0.0914 | -0.0175 | 0.0165 | -0.0207 | -0.043 | 0.0103 | -0.0897 | -0.0605 | -0.0561 | -0.0834 | -0.0528 | 0.0249 | -0.0407 | -0.0445 | -0.0601 | -0.0248 | -0.0344 | -0.0598 | -0.0424
7 | CC1(C)CCC(CN2CCN(c3ccc(C(=O)NS(=O)(=O)c4ccc(NCC5CCOCC5)c([N+](=O)[O-])c4)c(Oc4cnc5[nH]ccc5c4)c3)CC2)=C(c2ccc(Cl)cc2)C1 [Venetoclax] + CCN(CCO)CCCOc1ccc2c(Nc3cc(CC(=O)Nc4cccc(F)c4)[nH]n3)ncnc2c1 [AZD2811] (first compound max 1 µM, 7x7, partner max 1 µM) | -0.0694 | -0.0633 | -0.0234 | 0.0108 | -0.0027 | -0.0051 | 0.0484 | -0.0215 | 0.0871 | -0.0176 | 0.0056 | -0.0111 | 0.0264 | -0.0565 | -0.0204 | -0.0927 | -0.0506 | -0.0362 | -0.0556 | 0.0108
